We go through one molecule from patent publication US10357525B2, “Use of a polysaccharide mixture for treating hyperglycemia” (TRINEO BIOTECHNOLOGY CO. LTD, priority 2017, dated 2019).

The assay deals with NIT-1 cells. As to the kind of experiment: STZ-induced apoptosis in NIT-1 cells, cell viability by MTT assay. The assay is classed as cell-based, mice. Particulars: STZ 8 μM alone, FIG. 1. The protocol: Cells. Cell line used in the present study was pancreatic beta cell line NIT-1 ([…], BCRC). NIT-1 cells were cultured and maintained in Ham's F12K medium with 2 mM L-glutamine adjusted to contain 1.5 g/L sodium bicarbonate, 90%; heat-inactivated dialyzed fetal bovine serum(FBS), 10%; 100 units/mL penicillin G, 100 units/mL streptomycin (pH 7.4) and 1% non-essential amino acids(NEAA). were maintained in humidified environment comprising 5%CO2/95% air at 37° C.
NIT-1 cells were seeded into 96-well plates at a density of 1.0×10^5 cells per well and cultured in their normal growth media overnight. Next day, cells were incubated in the presence of streptozotocin (STZ) (8 μM) and the polysaccharide mixture (abbreviated as “FPA”, 100 μg/mL) of the present invention for 24 hrs, then cell viability was determined by MTT assay.
NIT-1 cells are pancreatic beta cell lines established from transgenic mice spontaneously developing beta-cell adenoma, thus, NIT-1 cells are suitable for hyperglycemia study for they are not responsive to glucose in the physiological range. […] Accordingly, the protective effect of the present polysaccharide mixture of example 1 on STZ-treated NIT-1 cells was evaluated by MTT assay. Result is illustrated in FIG. 1.
(Tetrazolium assays rely on reduction of a dye to a coloured formazan, in cell work by metabolically active cells.)

With `CN(N=O)C(=O)N[C@H]1C(O)O[C@H](CO)[C@@H](O)[C@@H]1O` (mixture of isomers) [STZ, streptozotocin], the “portion of NIT-1 cells died” value is “about 60%”.
